Results from patent US6887890B2, “Compounds exhibiting thrombopoietin-like activities” (Chugai Seiyaku Kabushiki Kaisha, priority 2000, dated 2005).

Tested on: Mpl-expressing Ba/F3 cell line (human mpl gene)
Assay: Measurement of thrombopoietin (TPO) activity: viable cell count of Mpl-expressing Ba/F3 cell line (Cell Count Reagent SF, absorbance 450 nm)
Assay type: cell-based
Settings: for Concentration: concentration corresponding to the maximum TPO activity value; for TPO activity: maximum TPO activity value, ODt/ODs×100 relative to maximum reaction of human TPO, Mpl-expressing Ba/F3 cells cultured at 37° C. for one day, at the concentration given
Protocol: The TPO activities of the compounds of the invention obtained in the aforementioned examples were measured by the procedure described below, for evaluation of their thrombopoietic effects.
Establishment of Mpl-expressing Ba/F3 Cell Line
The human mpl gene was cloned from cDNAs of the human erythroleukemia cell line HEL by PCR, and was incorporated into pCOS1 to construct an expression vector. The expression vector was transfected into Ba/F3 cells by electroporation method, and an Mpl-expressing Ba/F3 clone was established.
Measurement of Thrombopoietin (TPO) Activity
The cytokine-eliminated Mpl-expressing Ba/F3 line was plated in a 96-well plate at 25,000 cells/well. DMSO solutions containing the compounds obtained in each of the examples were then prepared to different specified concentration ranges, and each solution was added to the Mpl-expressing Ba/F3 cell line (final DMSO concentration: ≦0.1%), and the cell were cultured at 37° C. for one day. Human TPO (by R&D Systems or Genzyme) was used as a positive control.
Each of the cultured Mpl-expressing Ba/F3 cell lines was subjected to absorbance measurement at a wavelength of 450 nm (reference wavelength: 620 nm), corresponding to the viable cell count, using Cell Count Reagent SF (by Nacalai Tesque Inc.). The TPO activity of each compound for the Mpl-expressing Ba/F3 cell line was determined based on the following formula. TPO activity (%)=ODt/ODs×100
ODs: Absorbance at maximum reaction of human TPO (wavelength: 450-620 nm).
ODt: Absorbance of test solution (wavelength: 450-620 nm).
Tables 1 and 2 show the maximum TPO activity values and the corresponding concentrations of each compound, as obtained by the test described above.

SMILES: Cl.NCCCC[C@@H](NC(=O)[C@H](N)Cc1c[nH]c2ccccc12)C(=O)Nc1ccc(C(c2ccc(NC(=O)[C@@H](CCCCN)NC(=O)[C@H](N)Cc3c[nH]c4ccccc34)cc2)c2ccc(NC(=O)[C@@H](CCCCN)NC(=O)[C@H](N)Cc3c[nH]c4ccccc34)cc2)cc1 [Example 161, tris[4-[N-α-(D-tryptophyl)-D-lysyl]aminophenyl]methane hydrochloride]
- Concentration: 25 µM
- TPO activity: 65.6%

SMILES: NCCCC[C@H](NC(=O)c1cccc2cc(O)ccc12)C(=O)Nc1ccc(C(c2ccc(NC(=O)[C@H](CCCCN)NC(=O)c3cccc4cc(O)ccc34)cc2)c2ccc(NC(=O)[C@H](CCCCN)NC(=O)c3cccc4cc(O)ccc34)cc2)cc1.O=C(O)C(F)(F)F [Example 200, tris[4-[N-α-(6-hydroxynaphthalen-1-yl)carbonyl-L-lysyl]aminophenyl]methane trifluoroacetate]
- Concentration: 25 µM
- TPO activity: 144%
